Measured values reported in patent US20230064990A1, “DOSING REGIMENS AND METHODS FOR TREATING CANCER” (Panbela Therapeutics, Inc., priority 2020, published 2023).

How the values were obtained:
PDA = settings: pivotal trials; cited from earlier work
[1] = tested on: human L3.6pl pancreatic cancer cells; experiment: Orthotopic implantation of L3.6pl pancreatic cancer cells into nude mice; settings: Study 3, GEM 100 mg/kg 2×/wk ip, (S,S)-(HO)2DEHSPM 25 mg/kg 3×/wk
Procedure: These studies examined the anti-neoplastic effects of subcutaneous administration of (S,S)-(HO)2DEHSPM following orthotopic implantation of human L3.6pl pancreatic cancer cells into the pancreas of nude mice.
L3.6pl cells were injected into the pancreas of nude mice; treatment was initiated by group (n=10/group planned) 7-10 days later following establishment of tumors:
Study 1: saline (control), (S,S)-(HO)2DEHSPM (25 mg/kg), (S,S)-(HO)2DEHSPM (50 mg/kg), and (S,S)-(HO)2DEHSPM (100 mg/kg) daily (QD) for 4 to 6 weeks (wks).
Study 2: saline (control), (S,S)-(HO)2DEHSPM (25 mg/kg QD), (S,S)-(HO)2DEHSPM (25 mg/kg 3×/wk), (S,S)-(HO)2DEHSPM (15 mg/kg 3×/wk), and (S,S)-(HO)2DEHSPM (5 mg/kg 3×/wk) for 4 to 6 wks.
Study 3: saline (control), gemcitabine (GEM) (100 mg/kg 2×/wk, intraperitoneally), (S,S)-(HO)2DEHSPM (25 mg/kg 3×/wk), and (S,S)-(HO)2DEHSPM+GEM for 4 to 6 wks.

[2] = Phase 1a/1b study in combination with G and A, safety; format: in vivo, human; settings: N=20
Procedure: G (1000 mg/m^2) and A (125 mg/m^2) were administered intravenously on Days 1, 8, and 15 of each cycle. […] PK was evaluated on day 1 of cycle 1. Efficacy was assessed by CA19-9 levels, objective response was assessed by RECIST criteria, progression-free survival (PFS) and overall survival (OS).
This is a multicenter, open label, Phase 1a/1b study to evaluate to evaluate the safety, tolerability, pharmacokinetics and efficacy of (S,S)-(HO)2DEHSPM when administered in combination with G and A as first-line therapy in pancreatic cancer patients previously untreated for metastatic disease. The objective was to determine a recommended Phase 2 dose. Using a modified 3+3 dose escalation scheme, cohorts of subjects were dosed with subcutaneous injections of (S,S)-(HO)2DEHSPM at 0.2, 0.4 or 0.6 mg/kg days 1-5 of each 28-day cycle. Gemcitabine (1000 mg/m^2) and A (125 mg/m^2) were administered intravenously on Days 1, 8, and 15 of each cycle. […] PK was evaluated on day 1 of cycle 1. Efficacy was assessed by objective response rate (ORR) using RECIST criteria and by changes in CA19-9 levels. Subjects were treated until disease progression or the development of dose-limiting toxicity. Based upon initial safety findings and preliminary signals of efficacy, the protocol was amended to evaluate progression-free survival (PFS) and overall survival (OS) and expand the study to up to 36 subjects at the recommended Phase 2 dose. To date, 20 subjects were enrolled in cohorts 1-3 and evaluated for dose limiting toxicity and early signals of efficacy.

Molecule | DCR, historical rate (PDA) [%] | ORR, historical rate (PDA) [%] | decreases in body weight ([1]; 4 to 6 wks) [%] | decreases in pancreas weight ([1]; compared with controls) [%] | decreases in tumor volume ([1]; compared with controls) [%] | Grade ≥3 Elevated LFTs related to the named study medication (subjects) [2]
FOLFIRINOX | 70 | 32 | – | – | – | –
Nc1ccn([C@@H]2O[C@H](CO)[C@@H](O)C2(F)F)c(=O)n1 [GEM, gemcitabine, reference compound] | – | – | 18.7 | 24.7 | 37.8 | 1 (G)
